Experimental data: ChEMBL document CHEMBL3045308, “Design and synthesis of novel pyrethriods containing eugenol moiety” (2012)

Tests used:
Type in all cases: functional
[1] = system: Culex quinquefasciatus; test: Insecticidal activity against Culex quinquefasciatus assessed as contact mortality at 0.025 mg/ml at 4 hr by standard immersion method relative to control
[2] = system: Culex quinquefasciatus; test: Insecticidal activity against Culex quinquefasciatus assessed as contact mortality at 0.025 mg/ml at 24 hr by standard immersion method relative to control
[3] = system: Culex quinquefasciatus; test: Insecticidal activity against Culex quinquefasciatus assessed as contact mortality at 0.025 mg/ml at 1 hr by standard immersion method relative to control
[4] = system: Culex quinquefasciatus; test: Insecticidal activity against Culex quinquefasciatus assessed as contact mortality at 0.025 mg/ml at 12 hr by standard immersion method relative to control

CC(C)C(C(=O)OC(C#N)c1cccc(Oc2ccccc2)c1)c1ccc(Cl)cc1 (centres undefined) [FENVALERATE]
mortality at 25 µg/mL [1]: 18% | mortality at 25 µg/mL [2]: 88% | mortality at 25 µg/mL [3]: 10% | mortality at 25 µg/mL [4]: 40%

C=CC(OC(=O)C1C(C=C(C)C)C1(C)C)c1ccc(OC(C)=O)c(OC)c1 (centres undefined)
mortality at 25 µg/mL [1]: 25% | mortality at 25 µg/mL [2]: 88% | mortality at 25 µg/mL [3]: 10% | mortality at 25 µg/mL [4]: 34%

C=CC(OC(=O)C(c1ccc(Cl)cc1)C(C)C)c1ccc(OC(C)=O)c(OC)c1 (centres undefined)
mortality at 25 µg/mL [1]: 25% | mortality at 25 µg/mL [2]: 85% | mortality at 25 µg/mL [3]: 14% | mortality at 25 µg/mL [4]: 47%

C=CCC1=C(C)C(OC(=O)C2C(C=C(C)C)C2(C)C)CC1=O (centres undefined) [Allethrin]
mortality at 25 µg/mL [1]: 20% | mortality at 25 µg/mL [2]: 85% | mortality at 25 µg/mL [3]: 12% | mortality at 25 µg/mL [4]: 33%

C=CC(OC(=O)C1C(C=C(C)C)C1(C)C)c1ccc(OCC)c(OC)c1 (centres undefined)
mortality at 25 µg/mL [1]: 22% | mortality at 25 µg/mL [2]: 97% | mortality at 25 µg/mL [3]: 15% | mortality at 25 µg/mL [4]: 40%

C=CC(OC(=O)C(c1ccc(Cl)cc1)C(C)C)c1ccc(OCC)c(OC)c1 (centres undefined)
mortality at 25 µg/mL [1]: 23% | mortality at 25 µg/mL [2]: 96% | mortality at 25 µg/mL [3]: 10% | mortality at 25 µg/mL [4]: 42%
